Laboratory results reported in ChEMBL document CHEMBL4145518, “High anticancer potency on tumor cells of dehydroabietylamine Schiff-base derivatives and a copper(II) complex” (Eur J Med Chem, 2018).
The source made the active and inactive calls. The calls are words filed in the database; no cut-off is given here.

Assays:
HepG2 [1] = test: Induction of apoptosis in human HepG2 cells assessed as early apoptotic cells at 0.1 ug/ml after 24 hrs by Annexin V/propidium iodide staining based flow cytometry (reference value: 7.92%); assay type: functional
HepG2 [2] = test: Induction of apoptosis in human HepG2 cells assessed as late apoptotic cells at 0.1 ug/ml after 24 hrs by Annexin V/propidium iodide staining based flow cytometry (reference value: 7.09%); assay type: functional
HepG2 [3] = test: Induction of apoptosis in human HepG2 cells assessed as necrotic cells at 0.1 ug/ml after 24 hrs by Annexin V/propidium iodide staining based flow cytometry (reference value: 1.86%); assay type: functional
HepG2 [4] = test: Induction of apoptosis in human HepG2 cells assessed as viable cells at 0.1 ug/ml after 24 hrs by Annexin V/propidium iodide staining based flow cytometry (reference value: 83.13%); assay type: functional; settings: HepG2, 24 h, read-out: Activity
HepG2 [5] = test: Induction of apoptosis in human HepG2 cells assessed as early apoptotic cells at 1 ug/ml after 24 hrs by Annexin V/propidium iodide staining based flow cytometry (reference value: 7.92%); assay type: functional
HepG2 [6] = test: Induction of apoptosis in human HepG2 cells assessed as late apoptotic cells at 1 ug/ml after 24 hrs by Annexin V/propidium iodide staining based flow cytometry (reference value: 7.09%); assay type: functional
HepG2 [7] = test: Induction of apoptosis in human HepG2 cells assessed as necrotic cells at 1 ug/ml after 24 hrs by Annexin V/propidium iodide staining based flow cytometry (reference value: 1.86%); assay type: functional
HepG2 [8] = test: Induction of apoptosis in human HepG2 cells assessed as viable cells at 1 ug/ml after 24 hrs by Annexin V/propidium iodide staining based flow cytometry (reference value: 83.13%); assay type: functional; settings: HepG2, 24 h, read-out: Activity
HepG2 [9] = test: Induction of apoptosis in human HepG2 cells assessed as early apoptotic cells at 10 ug/ml after 24 hrs by Annexin V/propidium iodide staining based flow cytometry (reference value: 7.92%); assay type: functional
HepG2 [10] = test: Induction of apoptosis in human HepG2 cells assessed as late apoptotic cells at 10 ug/ml after 24 hrs by Annexin V/propidium iodide staining based flow cytometry (reference value: 7.09%); assay type: functional
HepG2 [11] = test: Induction of apoptosis in human HepG2 cells assessed as necrotic cells at 10 ug/ml after 24 hrs by Annexin V/propidium iodide staining based flow cytometry (reference value: 1.86%); assay type: functional
HepG2 [12] = test: Induction of apoptosis in human HepG2 cells assessed as viable cells at 10 ug/ml after 24 hrs by Annexin V/propidium iodide staining based flow cytometry (reference value: 83.13%); assay type: functional; settings: HepG2, 24 h, read-out: Activity
Salmon testes DNA [13] = test: Binding affinity to salmon sperm DNA assessed as DNA intercalation by ethidium bromide staining based fluorescence assay; assay type: nucleic-acid assay; settings: Salmonidae
HeLa = test: Antiproliferative activity against human HeLa cells after 36 hrs by MTT assay; assay type: functional, cell-based
HepG2 [14] = test: Antiproliferative activity against human HepG2 cells after 36 hrs by MTT assay; assay type: functional, cell-based; settings: HepG2, 36 h
MCF7 = test: Antiproliferative activity against human MCF7 cells after 36 hrs by MTT assay; assay type: functional, cell-based; settings: MCF7, 36 h
A549 = test: Antiproliferative activity against human A549 cells after 36 hrs by MTT assay; assay type: functional, cell-based; settings: A549, 36 h
HUVEC = test: Cytotoxicity against HUVEC assessed as reduction in cell viability after 36 hrs by MTT assay; assay type: cell-based; settings: Homo sapiens
Salmon testes DNA [15] = test: Binding affinity to salmon sperm DNA assessed as DNA intercalation at 5 10^-5M by ethidium bromide staining based fluorescence assay; assay type: nucleic-acid assay; settings: Salmonidae
Salmon testes DNA [16] = test: Binding affinity to salmon sperm DNA assessed as DNA intercalation at 1.5 10^-5M by ethidium bromide staining based fluorescence assay; assay type: nucleic-acid assay; settings: Salmonidae
Salmon testes DNA [17] = test: Binding affinity to salmon sperm DNA assessed as hypochromic shift at 1.5 10^-5M by ethidium bromide staining based fluorescence assay; assay type: nucleic-acid assay; settings: Salmonidae
Salmon testes DNA [18] = test: Binding affinity to salmon sperm DNA assessed as hypochromic shift at 5 10^-5M by ethidium bromide staining based fluorescence assay; assay type: nucleic-acid assay; settings: Salmonidae
[19] = Selectivity index, ratio of IC50 for HUVEC to IC50 for human HepG2 cells; assay type: toxicity; settings: HUVEC and HepG2 cells, read-out: Ratio IC50
Androgen receptor = target: T1, Androgen receptor (Homo sapiens, UniProt P10275); test: Binding affinity to androgen receptor (unknown origin)
T1 sequence (P10275 whole entry): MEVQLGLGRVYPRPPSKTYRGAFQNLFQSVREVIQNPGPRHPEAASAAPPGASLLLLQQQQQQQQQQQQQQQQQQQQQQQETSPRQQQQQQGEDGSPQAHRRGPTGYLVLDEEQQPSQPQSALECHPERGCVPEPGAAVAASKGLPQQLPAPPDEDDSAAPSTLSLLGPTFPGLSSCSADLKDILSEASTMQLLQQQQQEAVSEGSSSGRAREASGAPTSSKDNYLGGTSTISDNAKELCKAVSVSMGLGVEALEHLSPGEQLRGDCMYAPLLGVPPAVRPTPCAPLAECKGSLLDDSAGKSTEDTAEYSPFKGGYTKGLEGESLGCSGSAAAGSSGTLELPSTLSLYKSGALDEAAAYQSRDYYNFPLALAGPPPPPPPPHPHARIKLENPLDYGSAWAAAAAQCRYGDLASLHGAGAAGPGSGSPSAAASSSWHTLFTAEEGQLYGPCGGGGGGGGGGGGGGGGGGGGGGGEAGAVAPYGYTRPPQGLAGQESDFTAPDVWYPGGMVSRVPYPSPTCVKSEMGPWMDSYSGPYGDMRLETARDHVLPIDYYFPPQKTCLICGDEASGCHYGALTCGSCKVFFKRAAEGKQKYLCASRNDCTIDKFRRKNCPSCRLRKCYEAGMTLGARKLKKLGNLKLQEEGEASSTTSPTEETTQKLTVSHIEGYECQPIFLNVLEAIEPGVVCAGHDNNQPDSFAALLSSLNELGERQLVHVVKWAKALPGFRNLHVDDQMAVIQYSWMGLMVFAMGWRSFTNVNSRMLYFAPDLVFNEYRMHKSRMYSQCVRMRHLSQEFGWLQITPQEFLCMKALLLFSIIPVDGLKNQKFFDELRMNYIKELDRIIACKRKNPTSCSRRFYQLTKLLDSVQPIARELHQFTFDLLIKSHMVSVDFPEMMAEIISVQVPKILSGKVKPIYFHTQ

SMILES | Activity (HepG2 [1]) [%] | Activity (HepG2 [2]) [%] | Activity (HepG2 [3]) [%] | viability at 0.1 µg/mL (HepG2 [4]) [%] | Activity (HepG2 [5]) [%] | Activity (HepG2 [6]) [%] | Activity (HepG2 [7]) [%] | viability at 1 µg/mL (HepG2 [8]) [%] | Activity (HepG2 [9]) [%] | Activity (HepG2 [10]) [%] | Activity (HepG2 [11]) [%] | viability at 10 µg/mL (HepG2 [12]) [%] | IC50 (HeLa) [µM] | IC50 (HepG2 [14]) [µM] | IC50 (MCF7) [µM] | IC50 (A549) [µM] | IC50 (HUVEC) [µM] | Activity (Salmon testes DNA [15]) | also measured
COc1cccc2c1C(=O)c1c(O)c3c(c(O)c1C2=O)C[C@@](O)(C(=O)CO)C[C@@H]3O[C@H]1C[C@H](N)[C@H](O)[C@H](C)O1 [DOXORUBICIN] | 34.49 | 11.74 | 0.62 | 53.1 | 47.19 | 12.6 | 0.35 | 39.9 | 70.12 | 3.57 | 0 | 26.3 | – | – | – | – | – | – | Activity (Salmon testes DNA [13]): Active
CC(C)c1ccc2c(c1)CC[C@H]1[C@](C)(CN)CCC[C@]21C | 22.94 | 15.46 | 0.69 | 60.9 | 44.79 | 22.98 | 0.24 | 32 | 91.91 | 0.7 | 0 | 1.4 | 2.02 | 2.56 | 19.4 | 5.02 | 1.27 | – | –
CC(C)c1ccc2c(c1)CC[C@H]1[C@](C)(C/N=C/c3cccc(C(C)(C)C)c3O)CCC[C@]21C | – | – | – | – | – | – | – | – | – | – | – | – | 20 | 10.5 | 25 | 41 | 33 | Active | –
CC(C)c1ccc2c(c1)CC[C@H]1[C@](C)(C/N=C/c3ncc[nH]3)CCC[C@]21C | 26.33 | 18.54 | 0.69 | 54.4 | 51.15 | 10.13 | 0.25 | 38.5 | 98.32 | 0.32 | 0 | 1.06 | 3.22 | 0.24 | 4.28 | 3.17 | 7.67 | – | Activity (Salmon testes DNA [16]): Active; Activity (Salmon testes DNA [17]): Active
CCN(CC)c1ccc(/C=N/C[C@]2(C)CCC[C@]3(C)c4ccc(C(C)C)cc4CC[C@@H]23)c(O)c1 | – | – | – | – | – | – | – | – | – | – | – | – | 11.2 | 10.7 | 14.1 | 17 | 43.1 | Active | –
CC(C)c1ccc2c(c1)CC[C@H]1[C@](C)(C/N=C/c3c[nH]cn3)CCC[C@]21C | 33.71 | 12.9 | 0.66 | 52.7 | 60.49 | 6.39 | 0.23 | 32.9 | 98.78 | 0.29 | 0 | 0.93 | 7.86 | 0.14 | 2.58 | 7 | 26 | Active | Activity (Salmon testes DNA [18]): Active; selectivity ratio [19]: 180
CC(C)c1ccc2c(c1)CC[C@H]1[C@](C)(C/N=C/c3cc(C(C)(C)C)cc(C(C)(C)C)c3O)CCC[C@]21C | – | – | – | – | – | – | – | – | – | – | – | – | 41 | 17.6 | 5.41 | 40 | 41 | Active | –
CC(C)c1ccc2c(c1)C(=O)C[C@H]1[C@@](C)(CNC(=O)c3ccccc3)CCC[C@]21C | – | – | – | – | – | – | – | – | – | – | – | – | – | – | – | – | – | – | IC50 (Androgen receptor): 83.8 µM
